Test results from PMC4416304, “Nickel quercetinase, a “promiscuous” metalloenzyme: metal incorporation and metal ligand substitution studies” (BMC Biochemistry, 2015).
Residue numbers refer to the chain shown, from its start.

Experiments:
Assay in all cases: intrinsic protein fluorescence titration
Assay type in all cases: binding
[1] = target: T1, QueD (Ni-QueD; Streptomyces quercetinase) (Streptomyces sp. FLA, UniProt A2VA43, H115A)
T1 construct: C-terminal StrepII tag kept (pET23a-queD-Strep), E. coli BL21(DE3) pLysS grown with Ni2+; monocupin, native enzyme a dimer
T1 sequence (A2VA43 1-186 H115A): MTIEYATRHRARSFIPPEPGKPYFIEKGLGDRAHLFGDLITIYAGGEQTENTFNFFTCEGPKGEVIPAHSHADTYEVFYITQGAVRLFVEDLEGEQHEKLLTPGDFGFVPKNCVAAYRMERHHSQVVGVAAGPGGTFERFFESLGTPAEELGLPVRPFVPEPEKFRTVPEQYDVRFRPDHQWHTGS
Text: (§1) intrinsic protein fluorescence titration on QueD (Ni-QueD; Streptomyces quercetinase)

[2] = target: T2, QueD (Ni-QueD; Streptomyces quercetinase) (Streptomyces sp. FLA, UniProt A2VA43, H69A)
T2 construct: C-terminal StrepII tag kept (pET23a-queD-Strep), E. coli BL21(DE3) pLysS grown with Ni2+; monocupin, native enzyme a dimer
T2 sequence (A2VA43 1-186 H69A): T1 sequence (A2VA43 1-186 H115A) with H69A, A115H
Text: as §1

[3] = target: T3, QueD (Ni-QueD; Streptomyces quercetinase) (Streptomyces sp. FLA, UniProt A2VA43, E76D)
T3 construct: C-terminal StrepII tag kept (pET23a-queD-Strep), E. coli BL21(DE3) pLysS grown with Ni2+; monocupin, native enzyme a dimer
T3 sequence (A2VA43 1-186 E76D): T1 sequence (A2VA43 1-186 H115A) with E76D, A115H
Text: as §1

[4] = target: T4, QueD (Ni-QueD; Streptomyces quercetinase) (Streptomyces sp. FLA, UniProt A2VA43, E76H)
T4 construct: C-terminal StrepII tag kept (pET23a-queD-Strep), E. coli BL21(DE3) pLysS grown with Ni2+; monocupin, native enzyme a dimer
T4 sequence (A2VA43 1-186 E76H): T1 sequence (A2VA43 1-186 H115A) with E76H, A115H
Text: as §1

[5] = target: T5, QueD (Ni-QueD; Streptomyces quercetinase) (Streptomyces sp. FLA, UniProt A2VA43, H71A)
T5 construct: C-terminal StrepII tag kept (pET23a-queD-Strep), E. coli BL21(DE3) pLysS grown with Ni2+; monocupin, native enzyme a dimer
T5 sequence (A2VA43 1-186 H71A): T1 sequence (A2VA43 1-186 H115A) with H71A, A115H
Text: as §1

[6] = target: T6, QueD (Ni-QueD; Streptomyces quercetinase) (Streptomyces sp. FLA, UniProt A2VA43)
T6 construct: C-terminal StrepII tag kept (pET23a-queD-Strep), E. coli BL21(DE3) pLysS grown with Ni2+; monocupin, native enzyme a dimer
T6 sequence (A2VA43 1-186): T1 sequence (A2VA43 1-186 H115A) with A115H
Text: intrinsic protein fluorescence titration on QueD (Ni-QueD; Streptomyces quercetinase) | The K D value of the complex of Ni-QueD with quercetin

For `O=c1c(O)c(-c2ccc(O)c(O)c2)oc2cc(O)cc(O)c12` [quercetin], the Kd [1] was 2.6 µM, the Kd [2] was 3.1 µM and the Kd [3] was 4 µM. For the same compound, the Kd [4] was 1.3 µM, the Kd [5] was 10.4 µM and the Kd [6] was 10.1 ± 2.9 µM.
